Measurements published in publication PMC6696278 (International Journal of Molecular Sciences, 2019).

Experiments:
Format in all cases: binding
human galectin-3 = molecular target: T1, human galectin-3 (Homo sapiens, UniProt P17931); assay: competitive fluorescence polarization assay, galectin-3; conditions: average and SEM, PBS
T1 construct: made in house; host or cells: vector pET3c (the same vector as galectin-7)
Description: (§1) Human galectin-1 [25], galectin-2 [26], galectin-3 [27], galectin-4N [19], galectin-4C [19], galectin-8N [28], galectin-8C [28], galectin-9N [29], and galectin-9C [30], were expressed and purified as described earlier. Human galectin-7 was expressed using a pET3c plasmid in E. coli BL21-star. The plasmid containing expression optimized DNA encoding the full human galectin-7 sequence (NCBI Reference Sequence: NP_002298.1) was obtained from GenScript (Piscataway, NJ, USA). […] Lactose was removed by chromatography on a PD-10 column (Amersham Biosciences) with repeated ultrafiltration with Centriprep (Amicon).
(§2) Fluorescence polarization experiments were carried out either with a POLARStar plate reader and FLUOstar Galaxy software or with a PheraStarFS plate reader and PHERAstar Mars version 2.10 R3 software (BMG, Offenburg, Germany). The dissociation constant (Kd) values were determined in PBS as described earlier. Specific conditions for galectin-1, 2, 3, 4N, 4C, 8N, 8C, 9N, and 9C were kept as reported. Experiments were performed at room temperature with human galectin-7 at 5 µM and the fluorescent probe β-D-galactopyranosyl-(1–4)-2-acetamido-2-deoxy-β-d-glucopyranosyl-(1–3)-β-d-galactopyranosyl-(1–4)-(N1-fluorescein-5-yl-carbonylaminomethylcarbonyl)-β-D-glucopyranosylamine at 0.02 µM. All the compounds in Table 1 except 32 were dissolved in a neat DMSO at 100 mM and diluted in PBS to three to six different concentrations to be tested in duplicate.

human galectin-7 = molecular target: T2, human galectin-7 (Homo sapiens, UniProt P47929); assay: competitive fluorescence polarization assay, galectin-7; conditions: average and SEM, PBS, room temperature, galectin-7 at 5 µM, probe 0.02 µM
T2 construct: made in house; host or cells: E. coli BL21-star, pET3c plasmid (DNA from GenScript)
T2 sequence (P47929 whole entry): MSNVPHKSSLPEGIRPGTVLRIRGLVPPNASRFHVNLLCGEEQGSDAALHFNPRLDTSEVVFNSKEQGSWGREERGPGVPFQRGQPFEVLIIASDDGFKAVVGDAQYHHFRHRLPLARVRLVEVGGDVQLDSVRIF
Description: (§3) Human galectin-1 [25], galectin-2 [26], galectin-3 [27], galectin-4N [19], galectin-4C [19], galectin-8N [28], galectin-8C [28], galectin-9N [29], and galectin-9C [30], were expressed and purified as described earlier. Human galectin-7 was expressed using a pET3c plasmid in E. coli BL21-star. The plasmid containing expression optimized DNA encoding the full human galectin-7 sequence (NCBI Reference Sequence: NP_002298.1) was obtained from GenScript (Piscataway, NJ, USA). Bacterial culture and induction, and galectin purification was essential as described for galectin-3 expressed with the same vector [27]; a typical yield was 1.5–2 mg/L culture. Lactose was removed by chromatography on a PD-10 column (Amersham Biosciences) with repeated ultrafiltration with Centriprep (Amicon).
as §2

[1] = molecular target: T3, human galectin-9N (N-terminal domain) (Homo sapiens, UniProt O00182); assay: competitive fluorescence polarization assay, galectin-9N; conditions: PBS
T3 construct: 4N (N-terminal domain) 4C (C-terminal domain), 7, 8N, 8C, 9N, and 9C; made in house
T3 sequence (O00182 17-148 limits assumed): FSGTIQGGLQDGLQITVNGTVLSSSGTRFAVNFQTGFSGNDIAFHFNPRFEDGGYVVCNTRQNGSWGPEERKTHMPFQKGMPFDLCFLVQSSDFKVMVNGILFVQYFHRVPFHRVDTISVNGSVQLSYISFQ
Description: as §3, §2

human galectin-2 = molecular target: T4, human galectin-2 (Homo sapiens, UniProt P05162); assay: competitive fluorescence polarization assay, galectin-2; conditions: average and SEM, PBS
T4 construct: made in house
T4 sequence (P05162 1-132): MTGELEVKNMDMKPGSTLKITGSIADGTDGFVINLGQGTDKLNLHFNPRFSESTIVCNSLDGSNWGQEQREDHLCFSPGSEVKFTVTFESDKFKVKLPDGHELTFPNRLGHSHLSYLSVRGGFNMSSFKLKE
Description: as §3, §2

[2] = molecular target: T5, human galectin-8N (N-terminal domain) (Homo sapiens, UniProt O00214); assay: competitive fluorescence polarization assay, galectin-8N; conditions: PBS
T5 construct: 4N (N-terminal domain) 4C (C-terminal domain), 7, 8N, 8C, 9N, and 9C; made in house
T5 sequence (O00214 19-152 limits assumed): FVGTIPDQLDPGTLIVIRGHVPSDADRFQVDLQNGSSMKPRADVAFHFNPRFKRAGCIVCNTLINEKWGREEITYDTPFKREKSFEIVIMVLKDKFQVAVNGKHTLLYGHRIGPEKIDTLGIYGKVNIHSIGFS
Description: as §1, §2

[3] = molecular target: T6, human galectin-4C (C-terminal domain) (Homo sapiens, UniProt P56470); assay: competitive fluorescence polarization assay, galectin-4C; conditions: PBS
T6 construct: 4N (N-terminal domain) 4C (C-terminal domain); made in house
T6 sequence (P56470 194-323 limits assumed): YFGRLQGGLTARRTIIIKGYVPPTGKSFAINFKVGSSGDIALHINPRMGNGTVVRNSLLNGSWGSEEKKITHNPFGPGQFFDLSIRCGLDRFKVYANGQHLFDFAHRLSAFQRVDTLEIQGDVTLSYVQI
Description: as §1, §2

[4] = molecular target: T7, human galectin-8C (C-terminal domain) (Homo sapiens, UniProt O00214); assay: competitive fluorescence polarization assay, galectin-8C; conditions: PBS
T7 construct: 4N (N-terminal domain) 4C (C-terminal domain), 7, 8N, 8C, 9N, and 9C; made in house
T7 sequence (O00214 187-317 limits assumed): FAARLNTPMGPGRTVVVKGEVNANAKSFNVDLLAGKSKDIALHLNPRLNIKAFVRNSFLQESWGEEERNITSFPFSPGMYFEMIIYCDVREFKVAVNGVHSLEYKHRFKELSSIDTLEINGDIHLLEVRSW
Description: as §1, §2

human galectin-1 = molecular target: T8, human galectin-1 (Homo sapiens, UniProt P09382); assay: competitive fluorescence polarization assay, galectin-1; conditions: average and SEM of 4–8 single-triple point measurements, PBS
T8 construct: made in house
T8 sequence (P09382 whole entry): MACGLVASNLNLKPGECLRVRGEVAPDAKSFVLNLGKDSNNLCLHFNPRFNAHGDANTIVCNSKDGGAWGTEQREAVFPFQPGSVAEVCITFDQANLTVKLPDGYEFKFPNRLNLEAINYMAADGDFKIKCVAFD
Description: as §1, §2

[5] = molecular target: T9, human galectin-9C (C-terminal domain) (Homo sapiens, UniProt O00182); assay: competitive fluorescence polarization assay, galectin-9C; conditions: PBS
T9 construct: 4N (N-terminal domain) 4C (C-terminal domain), 7, 8N, 8C, 9N, and 9C; made in house
T9 sequence (O00182 227-355 limits assumed): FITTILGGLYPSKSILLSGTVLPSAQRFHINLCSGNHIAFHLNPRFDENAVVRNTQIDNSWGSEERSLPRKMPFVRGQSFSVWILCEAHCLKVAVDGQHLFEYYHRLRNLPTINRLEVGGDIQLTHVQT
Description: as §1, §2

[6] = molecular target: T10, human galectin-4N (N-terminal domain) (Homo sapiens, UniProt P56470); assay: competitive fluorescence polarization assay, galectin-4N; conditions: N-terminal domain, average and SEM, PBS
T10 construct: 4N (N-terminal domain) 4C (C-terminal domain); made in house
T10 sequence (P56470 19-150 limits assumed): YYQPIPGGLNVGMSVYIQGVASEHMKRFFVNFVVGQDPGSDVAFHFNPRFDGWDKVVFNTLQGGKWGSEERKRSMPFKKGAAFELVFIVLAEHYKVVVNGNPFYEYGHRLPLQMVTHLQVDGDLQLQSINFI
Description: as §3, §2

T1 sequence (P17931 whole entry): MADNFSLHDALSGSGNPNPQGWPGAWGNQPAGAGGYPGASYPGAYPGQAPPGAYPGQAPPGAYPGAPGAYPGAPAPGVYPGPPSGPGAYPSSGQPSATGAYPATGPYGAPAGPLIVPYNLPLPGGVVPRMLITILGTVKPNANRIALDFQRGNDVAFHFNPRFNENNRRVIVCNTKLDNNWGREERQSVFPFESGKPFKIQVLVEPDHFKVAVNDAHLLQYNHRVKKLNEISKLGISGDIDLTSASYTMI

SMILES	Kd (human galectin-3; Table 2) [mM]	Kd (human galectin-7; Table 2) [mM]	Kd ([1]; Table 2, average and SEM) [mM]	Kd (human galectin-2; Table 2) [mM]	Kd ([2]; Table 2, average and SEM) [mM]	Kd ([3]; Table 2, average and SEM) [mM]	Kd ([4]; Table 2, average and SEM) [mM]	Kd (human galectin-1; Table 2) [mM]	Kd ([5]; Table 2, average and SEM) [mM]	Kd ([6]; Table 2) [mM]	Kd (human galectin-3; Table 1) [mM]	Kd (human galectin-7; Table 1) [mM]	Kd ([1]; Table 1, average and SEM) [mM]	Kd (human galectin-2; Table 1) [mM]	Kd ([2]; Table 1, average and SEM) [mM]	Kd ([3]; Table 1, average and SEM) [mM]	Kd ([4]; Table 1, average and SEM) [mM]	Kd (human galectin-1; Table 1) [mM]	Kd ([5]; Table 1, average and SEM) [mM]	Kd ([6]; Table 1) [mM]
CO[C@@H]1O[C@H](CO)[C@H](O)[C@H](CNC(=O)c2cccc(F)c2)[C@H]1O [Compound 7d, Methyl 3-Deoxy-3-C-(3-Fluorobenzamidomethyl)-β-D-Galactopyranoside]	> 4	> 4	> 4	> 4	> 4	> 4	> 4	1.9 ± 0.4	> 4	> 4										
CO[C@@H]1O[C@H](CO)[C@H](O)[C@H](Cn2cc(-c3cccc(F)c3)nn2)[C@H]1O [Compound 4, Methyl 3-Deoxy-3-C-[4-(3-Fluorophenyl)-1H-1,2,3-Triazol-1-Ylmethyl]-β-D-Galactopyranoside]											> 4	> 4	> 4	> 4	> 4	> 4	> 4	> 4	> 4	> 4
CO[C@@H]1O[C@H](CO)[C@H](O)[C@H](CNC(=O)c2cc(F)c(F)c(F)c2)[C@H]1O [Compound 7f, Methyl 3-Deoxy-3-C-(3,4,5-Trifluorobenzamidomethyl)-β-D-Galactopyranoside]	> 4	> 4	> 4	> 4	> 4	> 4	> 4	2.5 ± 0.4	> 4	> 4										
COc1cccc(C(=O)NC[C@H]2[C@@H](O)[C@@H](CO)O[C@@H](OC)[C@@H]2O)c1 [Compound 7h, Methyl 3-Deoxy-3-C-(3-Methoxybenzamidomethyl)-β-D-Galactopyranoside]	> 4	> 4	> 4	> 4	> 4	> 4	> 4	3.2 ± 0.5	> 4	> 4										
CO[C@@H]1O[C@H](CO)[C@H](O)[C@H](CNC(=O)Nc2cccc(F)c2)[C@H]1O [Compound 5, Methyl 3-Deoxy-3-C-(3-Fluorophenylureido)Methyl-β-D-Galactopyranoside]											> 4	> 4	> 4	> 4	> 4	> 4	> 4	> 4	> 4	> 4
CO[C@@H]1O[C@H](CO)[C@H](O)[C@@H](CNC(C)=O)[C@H]1O [Compound 7b, Methyl 3-Deoxy-3-C-Acetamidomethyl-β-D-Gulopyranoside]	> 4	> 4	> 4	> 4	> 4	> 4	2.7 ± 0.5	1.5 ± 0.08	> 4	1.9 ± 0.05										
COc1cc(OC)cc(C(=O)NC[C@H]2[C@@H](O)[C@@H](CO)O[C@@H](OC)[C@@H]2O)c1 [Compound 7j, Methyl 3-Deoxy-3-C-(3,5-Dimethoxybenzamidomethyl)-β-D-Galactopyranoside]	> 4	> 4	> 4	> 4	> 4	> 4	2.6 ± 0.6	1.8 ± 0.04	> 4	2 ± 0.4										
CO[C@@H]1O[C@H](CO)[C@H](O)[C@H](CNC(=O)c2ccc(F)cc2)[C@H]1O [Compound 7e, Methyl 3-Deoxy-3-C-(4-Fluorobenzamidomethyl)-β-D-Galactopyranoside]	1.6 ± 0.03	> 4	> 4	> 4	> 4	> 4	> 4	1.7 ± 0.06	> 4	1.7 ± 0.07										
